Measurements: PMC11602988 (The Journal of Biological Chemistry, 2024)
Positions count from the first letter of the chain named. Like-named read-outs stand apart in the source and are kept apart here.

Assays:
[1] = biological target: T1, OCT1 WT (Homo sapiens, UniProt O15245); assay: Uptake screening (transport ratio over empty vector), HEK293 cells overexpressing OCT1 WT; assay type: cell-based; parameters: expressed in transfected cells;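 further: intracellular substrate levels quantified by HPLC–tandem mass spectrometry after uptake in HBSS+ buffer at 37 °C, stable Flp-In HEK293 lines, fold change versus empty vector–transfected cells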
T1 sequence (O15245 1-554): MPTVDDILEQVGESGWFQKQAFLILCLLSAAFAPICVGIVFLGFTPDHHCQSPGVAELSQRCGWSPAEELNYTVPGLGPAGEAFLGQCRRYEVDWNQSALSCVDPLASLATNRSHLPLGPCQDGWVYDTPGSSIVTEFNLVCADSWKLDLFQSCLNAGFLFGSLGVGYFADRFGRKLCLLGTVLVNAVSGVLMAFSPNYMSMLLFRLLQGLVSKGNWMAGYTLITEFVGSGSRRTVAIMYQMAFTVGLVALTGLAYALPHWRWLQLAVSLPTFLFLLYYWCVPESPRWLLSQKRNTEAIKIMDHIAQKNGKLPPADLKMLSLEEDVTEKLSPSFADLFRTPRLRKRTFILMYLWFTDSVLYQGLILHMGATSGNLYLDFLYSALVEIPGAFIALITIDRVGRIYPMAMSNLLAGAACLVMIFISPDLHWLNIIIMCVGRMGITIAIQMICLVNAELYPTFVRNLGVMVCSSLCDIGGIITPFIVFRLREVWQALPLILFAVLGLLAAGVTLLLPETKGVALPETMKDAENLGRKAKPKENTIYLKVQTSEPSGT

[2] = biological target: T2, OCT1 Phe244Ala variant (Homo sapiens, UniProt O15245, F244A); assay: Uptake screening (transport ratio over empty vector), HEK293 cells overexpressing OCT1 Phe244Ala variant; assay type: cell-based; parameters: expressed in transfected cells;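 further: stably transfected HEK293 cells, intracellular substrate quantified by HPLC-tandem mass spectrometry in cell lysates, uptake in HBSS+ buffer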
T2 sequence (O15245 1-554 F244A): T1 sequence (O15245 1-554) with F244A
Experimental: All experiments were carried out using transporter-overexpressing HEK293 cells. […] Cells were cultivated in Dulbecco’s Modified Eagle’s medium supplemented with 10% fetal calf serum, 100 U/ml penicillin, and 100 μg/ml streptomycin. Cells were passaged twice a week and kept in culture for no longer than 30 passages.
For uptake studies, 300,000 HEK293 cells were plated in each well of 24-well plates precoated with poly-D-lysine 48 prior to the experiment. On the day of the experiment, cells were washed once with prewarmed to 37 °C HBSS+ (Hank’s balanced salt solution supplemented with 10 mM Hepes, both Sigma-Aldrich). […] Uptake was stopped by adding ice-cold HBSS+ and cells were washed twice with ice-cold buffer before cell lysis was done using 80% acetonitrile containing an appropriate internal standard for eventual mass spectrometry. Relative quantification was done by comparison of transporter-overexpressing cells to empty vector–transfected controls. For uptake kinetic experiments, cells were incubated with increasing concentrations of substrate dissolved in HBSS+. Absolute quantification was done later by comparison to a standard curve in lysis buffer with known concentration.
Intracellular drug concentrations were detected and quantified by HPLC coupled to mass spectrometry. […] Substance-specific conditions were used to adjust the retention times of the analytes.
Transport ratios were determined as relative fold-increase of the uptake in transporter-overexpressing cells over empty vector–transfected control cells. For transport kinetic experiments, absolute substrate quantification was done by signal comparison to a standard curve with known concentrations. Net uptake was then determined by subtracting the uptake into empty vector–transfected cells from transporter-overexpressing cells. […] Vmax defines the maximum transport velocity, Km refers to the substrate concentration required to reach half vmax. The intrinsic clearance Clint is the ratio of vmax over Km.

[3] = uptake ratio over empty vector, HEK293 cells overexpressing OCT1 WT
[4] = Phe244Ala uptake relative to WT
[5] = uptake ratio over empty vector, HEK293 cells overexpressing OCT1 Phe244Ala
[6] = uptake ratio of OCT1 WT-overexpressing HEK293 cells over empty vector
[7] = Phe244Ala uptake relative to OCT1 WT
[8] = uptake ratio of OCT1 Phe244Ala-overexpressing HEK293 cells over empty vector

| Molecule | Mean_transport_ratio_WT [1, 3] | Mean_transport_ratio_Phe244Ala [2, 5] | relative_Phe244Ala_uptake_in% [2, 7] [%] | other results |
| --- | --- | --- | --- | --- |
| CNCc1ccc(CSCCNC(=C[N+](=O)[O-])NC)o1 [N-Desmethyl ranitidine] | 35.663 | 31.7 | – | relative_Phe244Ala_uptake_in% [2, 4]: 88.566% |
| C[N+]1(C)[C@@H]2CC(OC(=O)C(O)(c3cccs3)c3cccs3)C[C@H]1[C@@H]1O[C@@H]12 (stereo partly drawn) [Thiotropium] | – | – | – | Mean_transport_ratio_WT [1]: 34.841; Mean_transport_ratio_Phe244Ala [2]: 35.339; relative_Phe244Ala_uptake_in% [2]: 101.472% |
| CCC1(C2=NCCN2)Cc2ccccc2O1 (stereo not drawn) [Efaroxan] | 1.81 | 1.371 | – | relative_Phe244Ala_uptake_in% [2, 4]: 45.757% |
| C[N+]1(C)CCN(c2ccccc2)CC1 [Dimethylphenylpiperazinium] | 34.77 | 24.939 | – | relative_Phe244Ala_uptake_in% [2, 4]: 70.889% |
| Cc1ncccc1C(N)=O [Methylnicotinamide] | – | – | -6.232 | Mean_transport_ratio_WT [1, 6]: 3.894; Mean_transport_ratio_Phe244Ala [2, 8]: 0.82 |
| CN=C(NC#N)NCCSCc1nc[nH]c1C [Cimetidin] | 2.536 | 2.588 | – | relative_Phe244Ala_uptake_in% [2, 4]: 103.374% |
| CN(C)C(=O)Oc1cccc([N+](C)(C)C)c1 [Neostigmine] | – | – | 23.835 | Mean_transport_ratio_WT [1, 6]: 51.144; Mean_transport_ratio_Phe244Ala [2, 8]: 12.952 |
| [H]/N=C(\N/C(=N/[H])Nc1ccc(Cl)cc1)NC(C)C [Proguanil] | 9.904 | 10.221 | 103.560 | – |
| COc1cc2c(cc1OC)-c1c(C)c3ccc(OC)c(OC)c3c[n+]1CC2 [Dehydrocorydaline] | 9.385 | 9.409 | – | relative_Phe244Ala_uptake_in% [2, 4]: 100.287% |
| C[N+]1(CCC(C(N)=O)(c2ccccc2)c2ccccc2)CCCCC1 [Fenpiverinium] | – | – | 131.946 | Mean_transport_ratio_WT [1, 6]: 38.408; Mean_transport_ratio_Phe244Ala [2, 8]: 50.359 |
| CNC(=C[N+](=O)[O-])NCCSCc1csc(CN(C)C)n1 [Nizatidine] | – | – | 10.436 | Mean_transport_ratio_WT [1, 6]: 4.961; Mean_transport_ratio_Phe244Ala [2, 8]: 1.413 |
| Cc1cc(N)c(OC(C)C)cc1C1CCNCC1 [1380575-45-0] | 4.645 | 6.442 | – | relative_Phe244Ala_uptake_in% [2, 4]: 149.293% |
| NC(=Nc1ccccc1)Nc1ccccc1 [Diphenylguanidine] | – | – | – | Mean_transport_ratio_WT [1]: 2.037; Mean_transport_ratio_Phe244Ala [2]: 1.952; relative_Phe244Ala_uptake_in% [2]: 91.817% |
| C[N@+]1(CC2CC2)CC[C@]23c4c5ccc(O)c4O[C@H]2C(=O)CC[C@@]3(O)[C@H]1C5 [Methylnaltrexone] | – | – | 139.178 | Mean_transport_ratio_WT [1, 6]: 47.714; Mean_transport_ratio_Phe244Ala [2, 8]: 66.016 |
| CNC[C@H](O)c1cccc(O)c1 [(R)-Phenylephrine] | 8.777 | 3.864 | 36.831 | – |
| NCCc1ccc(O)cc1 [p-Tyramine] | 4.809 | 1.435 | 11.429 | – |
| c1c2c(cc3c1OCO3)-c1cc3ccc4c(c3c[n+]1CC2)OCO4 [Coptisine] | 12.003 | 10.972 | – | relative_Phe244Ala_uptake_in% [2, 4]: 90.627% |
| O=S(=O)(c1cccc2cnccc12)N1CCCNCC1 [Fasudil] | – | – | – | Mean_transport_ratio_WT [1, 6]: 1; Mean_transport_ratio_Phe244Ala [2, 8]: 1.171 |
| C[N+]12CCC(CC1)C(OC(=O)C(O)(c1ccccc1)c1ccccc1)C2 (stereo not drawn) [Clidinium] | 30.863 | 34.518 | – | relative_Phe244Ala_uptake_in% [2, 4]: 112.238% |
| CN[C@@H]1CCc2[nH]c3ccc(C(N)=O)cc3c2C1 [R-Frovatriptan] | 16.171 | 10.8 | 64.599 | – |
| CN1[C@@H]2CC[C@H]1C[C@@H](OC(=O)c1c[nH]c3ccccc13)C2 [Tropisetron] | 2.206 | 1.568 | 47.074 | – |
| CC(NCCc1ccc(O)cc1)C(O)c1ccc(O)cc1 (stereo not drawn) [Ritodrine] | 8.916 | 12.33 | 143.135 | – |

| Molecule | Mean_transport_ratio_WT [1, 3] | Mean_transport_ratio_Phe244Ala [2, 5] | relative_Phe244Ala_uptake_in% [2, 7] [%] | other results |
| --- | --- | --- | --- | --- |
| CN(C)CCc1c[nH]c2ccc(C[C@H]3COC(=O)N3)cc12 [(S)-Zolmitriptan] | – | – | – | Mean_transport_ratio_WT [1]: 30.121; Mean_transport_ratio_Phe244Ala [2]: 8.091; relative_Phe244Ala_uptake_in% [2]: 24.350% |
| CC(=O)Nc1ccc(OCC(O)CNC(C)C)cc1 (stereo not drawn) [Practolol] | 2.092 | 1.913 | 83.607 | – |
| OC(c1ccccc1)(c1ccccc1)C12CC[N+](CCOCc3ccccc3)(CC1)CC2 [Umeclidinium] | 6.027 | 7.391 | 127.145 | – |
| O=C(OC1C[N+]2(CCCOc3ccccc3)CCC1CC2)C(O)(c1cccs1)c1cccs1 [(S)-Aclidinium] | 4.495 | 8.181 | – | relative_Phe244Ala_uptake_in% [2, 4]: 205.468% |
| CC(C)(C)NCC(O)c1ccc(O)c(CO)n1 (stereo not drawn) [Pirbuterol] | 68.047 | 54.212 | 79.364 | – |
| CC[N+](CC)(CC(=O)Nc1c(C)cccc1C)Cc1ccccc1 [Denatonium] | 14.264 | 17.085 | – | relative_Phe244Ala_uptake_in% [2, 4]: 121.267% |
| CC[C@@H](CO)NCCN[C@@H](CC)CO [(R,R)-Ethambutol] | – | – | – | Mean_transport_ratio_WT [1]: 26.39; Mean_transport_ratio_Phe244Ala [2]: 16.298; relative_Phe244Ala_uptake_in% [2]: 60.253% |
| CC(C)[N+](C)(CCOC(=O)C1c2ccccc2Oc2ccccc21)C(C)C [Propanthelinbromid] | 8.263 | 14.937 | 191.888 | – |
| (-)-Sparteine | – | – | – | Mean_transport_ratio_WT [1]: 5.032; Mean_transport_ratio_Phe244Ala [2]: 4.411; relative_Phe244Ala_uptake_in% [2]: 84.604% |
| CC[N+](C)(C)c1cccc(O)c1 [Edrophonium] | 25.947 | 26.201 | – | relative_Phe244Ala_uptake_in% [2, 4]: 101.017% |
| CNCCc1ccc(O)cc1 [N-Methyl-p-tyramine] | – | – | 12.133 | Mean_transport_ratio_WT [1, 6]: 6.673; Mean_transport_ratio_Phe244Ala [2, 8]: 1.688 |
| NCc1ccc(O)cc1 [Hydroxybenzylamin] | – | – | 22.795 | Mean_transport_ratio_WT [1, 6]: 2.288; Mean_transport_ratio_Phe244Ala [2, 8]: 1.294 |
| NCC(O)c1ccccc1 (stereo not drawn) [Bisnorephedrine] | 1.295 | 1.345 | – | relative_Phe244Ala_uptake_in% [2, 4]: 116.872% |
| CC[C@H](CO)NCCN[C@@H](CC)CO [(R,S)-Ethambutol] | – | – | – | Mean_transport_ratio_WT [1]: 17.35; Mean_transport_ratio_Phe244Ala [2]: 12.934; relative_Phe244Ala_uptake_in% [2]: 72.992% |
| COCCn1c2c([n+](Cc3cnccn3)c1C)C(=O)c1ccccc1C2=O [YM155] | 18.329 | 16.385 | 88.784 | – |
| CCC(NC(C)C)C(O)c1ccc(O)c(O)c1 (stereo not drawn) [Isoetharine] | – | – | 103.988 | Mean_transport_ratio_WT [1, 6]: 15.766; Mean_transport_ratio_Phe244Ala [2, 8]: 16.355 |
| CCN[C@@H](C)Cc1cccc(C(F)(F)F)c1 [(S)-Fenfluramine] | – | – | – | Mean_transport_ratio_WT [1]: 1.065; Mean_transport_ratio_Phe244Ala [2]: 1.119; relative_Phe244Ala_uptake_in% [2]: 183.841% |
| [H]/N=C(/N)N/C(=N/[H])NCCc1ccccc1 [Phenformin] | 29.083 | 32.603 | 112.534 | – |
| COc1cc2c(cc1OC)[C@H](C)NCC2 [Salsolidine] | 1.647 | 1.211 | 32.677 | – |
| NC(N)=NCc1cccc(I)c1 [Metaiodobenzylguanidine] | – | – | 96.674 | Mean_transport_ratio_WT [1, 6]: 11.544; Mean_transport_ratio_Phe244Ala [2, 8]: 11.193 |
| Cc1cccc(C)c1OCC(C)N (stereo not drawn) [Mexiletine] | – | – | 53.635 | – |
